Laboratory results as given in article PMC13600255 (Journal of the American Chemical Society, 2025).
“And” between values parts separate entries of the source, which are not always exact repeats. Equal values may be shown once. “Also recorded” adds a separate entry of the source. Read-outs that look alike come from different tables or passages of the source.

Assays:
hVMAT2 [1] = target: T1, hVMAT2 (Homo sapiens, UniProt Q05940); assay: FFN206 fluorescent substrate uptake inhibition in hVMAT2-HEK cells; format: cell-based; conditions: read-out: IC50, hVMAT2 (uptake inhibition, FFN206); hVMAT2-HEK cells, fluorescent substrate FFN206, n = 4
hDAT = hDAT (Homo sapiens, UniProt Q01959); assay: APP+ fluorescent substrate uptake inhibition in hDAT-HEK cells; format: cell-based; conditions: read-out: IC50, hDAT
hOCT2 = target: T2, hOCT2 (Homo sapiens, UniProt O15244); assay: ASP+ fluorescent substrate uptake inhibition at OCT2; format: cell-based; conditions: read-out: IC50, hOCT2; ASP+ fluorescent substrate
T2 sequence (O15244 1-555): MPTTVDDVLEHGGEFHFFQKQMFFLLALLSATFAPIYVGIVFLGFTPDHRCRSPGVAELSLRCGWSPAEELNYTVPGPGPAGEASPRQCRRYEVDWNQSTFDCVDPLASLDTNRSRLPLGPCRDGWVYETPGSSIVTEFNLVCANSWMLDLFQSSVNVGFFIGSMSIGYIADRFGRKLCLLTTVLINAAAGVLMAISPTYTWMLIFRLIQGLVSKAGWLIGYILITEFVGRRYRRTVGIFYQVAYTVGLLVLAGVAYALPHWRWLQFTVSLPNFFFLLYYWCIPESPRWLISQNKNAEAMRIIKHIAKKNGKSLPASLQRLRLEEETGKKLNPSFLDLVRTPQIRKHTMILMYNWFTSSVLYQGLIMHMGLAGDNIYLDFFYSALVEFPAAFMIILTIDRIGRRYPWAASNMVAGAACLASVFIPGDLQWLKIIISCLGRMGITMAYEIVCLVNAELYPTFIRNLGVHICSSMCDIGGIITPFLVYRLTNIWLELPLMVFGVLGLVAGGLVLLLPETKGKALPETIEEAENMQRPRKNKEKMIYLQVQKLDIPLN

[2] = test system: other uptake 2 transporters (OCT1, OCT3, PMAT); assay: Fluorescent substrate uptake inhibition at the other uptake 2 transporters; format: cell-based
rat SERT (rSERT) [3] = target: T3, rat SERT (rSERT) (Rattus norvegicus, UniProt P31652); assay: [3H]5-HT uptake inhibition in rat brain synaptosomes; format: biochemical; conditions: rat brain synaptosomes
rat VMAT2 (rVMAT2) = rat VMAT2 (rVMAT2) (Rattus norvegicus, UniProt Q01827); assay: [3H]5-HT uptake inhibition in rat brain synaptic vesicular fraction; format: biochemical; conditions: read-out: Uptake Inhibition at VMAT2 IC50, [3H]5-HT (rVMAT2); rat brain synaptic vesicles
SERT [4] = target: SERT (Rattus norvegicus, UniProt P31652); assay: [3H]5-HT release from rat brain synaptosomes via SERT; format: biochemical; conditions: rat brain synaptosomes
VMAT2 = VMAT2 (Rattus norvegicus, UniProt Q01827); assay: [3H]5-HT release from rat brain synaptic vesicles via VMAT2; format: biochemical
rVMAT2 = rVMAT2 (Rattus norvegicus, UniProt Q01827); assay: [3H]DTBZ binding competition in rat brain synaptic vesicles
SERT [5] = target: SERT (Mus musculus, UniProt Q60857); assay: SERTlight two-photon imaging of SERT function in acute mouse brain slices; format: cell-based
mouse VMAT2 (mVMAT2) = mouse VMAT2 (mVMAT2) (Mus musculus, UniProt Q8BRU6); assay: FFN200 two-photon imaging of VMAT2 function in acute mouse brain slices; format: cell-based
mice [6] = assay: Catalepsy bar test in mice; format: in vivo, mouse; conditions: mice, s.c.
mice [7] = assay: Open field locomotor activity test in mice; format: in vivo, mouse; conditions: s.c.
mice [8] = assay: Loss of righting reflex; format: in vivo, mouse; conditions: high doses
[9] = Pharmacokinetics in mice, estimated free drug concentration in brain; format: in vivo, mouse
Lipophilicity = format: physicochemical; conditions: noribogaine versus ibogamine
rat SERT (rSERT) [10] = target: T3, rat SERT (rSERT); conditions: read-out: IC50, rSERT reported previously in rat synaptosomes; cited from earlier work
hVMAT2 [11] = target: T1, hVMAT2; conditions: read-out: IC50, VMAT2 binding, cortex; human brain cortex; cited from earlier work
humans = conditions: top dose of 180 mg, p.o.; cited from earlier work
SERT [12] = conditions: SERT-transfected cells; cited from earlier work

Chain of SERT (Mus musculus, UniProt Q60857) (Q60857 whole entry): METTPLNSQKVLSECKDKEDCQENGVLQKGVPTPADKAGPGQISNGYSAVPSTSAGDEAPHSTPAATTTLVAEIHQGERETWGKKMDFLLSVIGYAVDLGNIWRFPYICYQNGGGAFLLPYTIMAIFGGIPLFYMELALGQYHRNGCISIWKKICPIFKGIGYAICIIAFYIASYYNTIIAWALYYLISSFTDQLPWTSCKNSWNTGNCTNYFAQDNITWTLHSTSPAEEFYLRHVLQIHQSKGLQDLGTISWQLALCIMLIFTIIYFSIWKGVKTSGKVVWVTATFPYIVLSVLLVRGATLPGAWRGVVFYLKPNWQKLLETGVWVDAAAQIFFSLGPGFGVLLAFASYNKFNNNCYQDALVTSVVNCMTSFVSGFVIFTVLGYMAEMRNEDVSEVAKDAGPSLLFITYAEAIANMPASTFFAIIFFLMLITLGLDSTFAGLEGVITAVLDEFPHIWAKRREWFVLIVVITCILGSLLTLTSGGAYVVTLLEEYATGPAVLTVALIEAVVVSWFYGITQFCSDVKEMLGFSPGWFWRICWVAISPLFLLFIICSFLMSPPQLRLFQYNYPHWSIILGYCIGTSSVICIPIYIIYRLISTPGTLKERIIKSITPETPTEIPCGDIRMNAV
Chain of SERT (Rattus norvegicus, UniProt P31652) (P31652 whole entry): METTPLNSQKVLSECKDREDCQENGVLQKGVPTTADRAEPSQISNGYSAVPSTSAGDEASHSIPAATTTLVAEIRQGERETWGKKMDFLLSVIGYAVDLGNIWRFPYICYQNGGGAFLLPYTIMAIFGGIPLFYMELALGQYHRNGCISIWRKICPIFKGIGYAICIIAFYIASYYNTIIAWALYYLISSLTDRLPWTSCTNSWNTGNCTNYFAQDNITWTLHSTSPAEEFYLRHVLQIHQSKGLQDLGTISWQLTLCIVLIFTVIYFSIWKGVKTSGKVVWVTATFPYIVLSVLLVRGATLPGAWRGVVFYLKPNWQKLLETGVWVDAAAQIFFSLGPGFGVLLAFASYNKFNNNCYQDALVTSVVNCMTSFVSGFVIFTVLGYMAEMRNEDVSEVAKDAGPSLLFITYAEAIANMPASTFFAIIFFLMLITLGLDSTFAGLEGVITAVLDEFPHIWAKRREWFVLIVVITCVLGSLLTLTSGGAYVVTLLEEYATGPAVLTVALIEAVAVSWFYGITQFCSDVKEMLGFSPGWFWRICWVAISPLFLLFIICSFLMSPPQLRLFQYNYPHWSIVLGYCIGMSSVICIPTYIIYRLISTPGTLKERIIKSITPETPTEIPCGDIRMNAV
T3 sequence (P31652 whole entry): as above
Chain of mouse VMAT2 (mVMAT2) (Q8BRU6 whole entry): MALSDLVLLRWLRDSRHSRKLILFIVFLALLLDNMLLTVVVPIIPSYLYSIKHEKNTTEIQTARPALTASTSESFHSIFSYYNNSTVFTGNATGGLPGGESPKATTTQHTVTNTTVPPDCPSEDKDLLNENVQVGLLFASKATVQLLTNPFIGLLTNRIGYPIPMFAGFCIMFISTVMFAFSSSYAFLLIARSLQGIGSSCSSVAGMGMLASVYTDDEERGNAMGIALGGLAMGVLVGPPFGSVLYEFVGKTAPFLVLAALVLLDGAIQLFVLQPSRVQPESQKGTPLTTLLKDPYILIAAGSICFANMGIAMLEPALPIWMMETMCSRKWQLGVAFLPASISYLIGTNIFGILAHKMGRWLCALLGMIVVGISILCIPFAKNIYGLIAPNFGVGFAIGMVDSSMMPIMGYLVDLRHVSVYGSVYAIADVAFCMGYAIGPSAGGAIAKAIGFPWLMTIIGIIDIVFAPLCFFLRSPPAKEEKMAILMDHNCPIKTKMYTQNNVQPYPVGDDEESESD
Chain of VMAT2 (Q01827 whole entry): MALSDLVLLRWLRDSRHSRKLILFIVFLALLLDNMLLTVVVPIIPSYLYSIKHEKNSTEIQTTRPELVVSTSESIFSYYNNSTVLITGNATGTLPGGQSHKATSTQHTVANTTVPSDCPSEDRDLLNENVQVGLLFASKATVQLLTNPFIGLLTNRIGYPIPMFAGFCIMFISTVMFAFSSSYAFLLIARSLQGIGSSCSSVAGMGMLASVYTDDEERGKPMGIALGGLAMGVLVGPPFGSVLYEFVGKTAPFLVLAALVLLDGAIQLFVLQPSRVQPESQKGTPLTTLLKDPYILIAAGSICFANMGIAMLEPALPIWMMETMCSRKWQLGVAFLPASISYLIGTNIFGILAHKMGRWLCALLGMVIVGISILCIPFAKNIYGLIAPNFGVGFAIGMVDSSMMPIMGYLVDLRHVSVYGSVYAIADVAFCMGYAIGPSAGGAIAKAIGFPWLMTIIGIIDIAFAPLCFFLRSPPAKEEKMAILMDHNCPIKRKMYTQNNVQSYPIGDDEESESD
Chain of rVMAT2 (Q01827 whole entry): as above
T1 sequence (Q05940 whole entry): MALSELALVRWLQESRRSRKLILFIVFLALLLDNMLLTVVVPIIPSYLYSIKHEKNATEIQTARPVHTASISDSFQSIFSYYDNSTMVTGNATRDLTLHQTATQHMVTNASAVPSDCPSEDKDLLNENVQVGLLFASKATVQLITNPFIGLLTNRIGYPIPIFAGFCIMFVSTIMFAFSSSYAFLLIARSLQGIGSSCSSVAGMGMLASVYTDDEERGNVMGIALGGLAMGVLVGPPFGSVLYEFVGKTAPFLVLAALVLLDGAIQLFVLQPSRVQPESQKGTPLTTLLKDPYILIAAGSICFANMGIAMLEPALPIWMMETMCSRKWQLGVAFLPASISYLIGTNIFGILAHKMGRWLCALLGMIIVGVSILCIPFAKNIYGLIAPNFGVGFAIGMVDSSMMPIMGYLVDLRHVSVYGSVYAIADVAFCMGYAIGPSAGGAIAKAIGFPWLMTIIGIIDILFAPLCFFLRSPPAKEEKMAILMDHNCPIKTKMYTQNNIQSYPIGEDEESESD
Chain of rat VMAT2 (rVMAT2) (Q01827 whole entry): as the sequence (Q01827 whole entry) above
Chain of hDAT (Q01959 whole entry): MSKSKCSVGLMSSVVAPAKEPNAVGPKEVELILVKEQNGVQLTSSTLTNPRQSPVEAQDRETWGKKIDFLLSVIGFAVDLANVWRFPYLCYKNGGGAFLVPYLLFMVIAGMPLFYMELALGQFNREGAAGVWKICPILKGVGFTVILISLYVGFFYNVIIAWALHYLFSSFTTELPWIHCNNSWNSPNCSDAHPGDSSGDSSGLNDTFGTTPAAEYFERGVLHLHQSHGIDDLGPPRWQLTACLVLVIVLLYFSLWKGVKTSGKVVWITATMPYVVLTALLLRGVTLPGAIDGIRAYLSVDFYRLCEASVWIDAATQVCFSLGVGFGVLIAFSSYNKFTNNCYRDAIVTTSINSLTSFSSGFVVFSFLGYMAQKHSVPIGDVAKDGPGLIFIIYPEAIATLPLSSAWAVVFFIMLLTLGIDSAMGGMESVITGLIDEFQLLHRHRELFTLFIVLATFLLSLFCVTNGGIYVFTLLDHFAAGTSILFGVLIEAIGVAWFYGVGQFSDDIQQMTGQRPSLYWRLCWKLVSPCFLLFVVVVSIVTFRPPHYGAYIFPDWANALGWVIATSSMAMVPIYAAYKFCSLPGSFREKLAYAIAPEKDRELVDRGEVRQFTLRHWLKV

CC[C@H]1C[C@H]2C[C@H]3c4[nH]c5ccc(O)cc5c4CCN(C2)[C@@H]13 [noribogaine]
IC50 (hVMAT2 [1]): 0.57 µM
IC50 (hDAT): 6.76 µM
IC50 (hOCT2): 6.18 µM
Inhibition at the other uptake 2 transporters examined [2]: no inhibition below 10 μM
IC50 (rat SERT (rSERT) [3]; read-out: Uptake Inhibition at SERT IC50, [3H]5-HT (rSERT)): 0.326 µM
IC50 (rat SERT (rSERT) [3]; read-out: [3H]5-HT Uptake Inhibition IC50 ± SD, SERT, n = 3): 0.326 ± 0.0476 µM
IC50 (rat VMAT2 (rVMAT2)): 1.31 µM
[3H]5-HT release from preloaded synaptosomes (qualitative) (SERT [4]): No [^3H]5-HT release was observed
[3H]5-HT Release % Emax via SERT (SERT [4]; n = 3): < 30%
[3H]5-HT Release EC50 ± SD via SERT (SERT [4]; n = 3, active releaser: EC50 < 10 μM and Emax > 30%): inactive
[3H]5-HT Release % Emax via VMAT2 (VMAT2; rat brain vesicular fraction, 5-HT control set as Emax = 100%): 50%
EC50 (VMAT2; read-out: [3H]5-HT Release EC50 ± SD via VMAT2): 6.48 µM
[3H]DTBZ displacement (rVMAT2): < 20%
IC50 (rVMAT2; read-out: IC50, rVMAT2 ([3H]DTBZ competition)): > 10 µM
Effect on somatodendritic SERTlight labeling in dorsal raphe (SERT [5]; 2 μM): showed no effect
Effect on SERTlight labeling of 5-HT axons (SERT [5]; 2 μM for 30 minutes, SERTlight 10 μM, SNpr, DS, SSp2/3): ablated SERTlight probe uptake; also recorded: completely blocked the SERTlight signal; also recorded: completely inhibited the axonal SERT
Effect on somatodendritic SERTlight labeling in dorsal raphe (SERT [5]; 10 μM): showed no effect
Effect on somatodendritic SERTlight labeling in dorsal raphe (SERT [5]; 30 μM): no apparent effect
Effect on somatodendritic SERTlight labeling in dorsal raphe (SERT [5]; 100 μM): clear inhibition
Inhibitory potency on SERTlight staining in dorsal raphe, dose-response (SERT [5]; 10, 30, 50, and 100 μM): weak inhibitory potency
Effect on FFN200 uptake / punctate labeling (mouse VMAT2 (mVMAT2); 2 μM for 30 minutes, FFN200 10 μM, dorsal striatum): strong inhibitory effects; also recorded: completely inhibited FFN200 uptake
IC50 (mouse VMAT2 (mVMAT2); read-out: IC50 FFN200 uptake in acute mouse slices, number of puncta per image, dose-response): 0.16 µM
Catalepsy in bar test (mice [6]; high doses 30, 50 and 80 mg/kg): did not induce catalepsy; also recorded: did not show any catalepsy
Catalepsy in bar test (mice [6]; dose-response): does not result in catalepsy
Locomotion in open field test (mice [7]; 30 mg/kg): strongly suppressed
Locomotor activity / sedation in open field test (mice [7]; dose-response): diminished ambulatory behavior
Loss of righting reflex (LORR) (mice [8]): did not observe a loss of righting reflex
Cmax, estimated free brain concentration ([9]; mice, 10 mg/kg, s.c.): ~ 6.6 μM
Cmax, estimated free drug in the brain ([9]; mice, 50 mg/kg, s.c.): 31 µM and > 20 µM
Concentration of free drug in the brain over plasma ([9]; rodents (rats ref 11 and mice, Figure S11)): > 4 fold
Less lipophilic than ibogamine by (Lipophilicity): 1.75 log D units
IC50 (rat SERT (rSERT) [10]): 0.33 µM
IC50 (hVMAT2 [11]): 5 µM
Dose-limiting cardiac effect (humans): cardiac QT interval prolongation
Partial [3H]5-HT release Emax (SERT [12]): ~ 30%
